row,Compound,melting point
1,CCCCCCCCCCCP(=O)(c1ccccc1)c1ccccc1,69 °C
2,CC1CCCN1CCCN1CCN(CCCN2CCC(F)(F)C2)C1=C(C#N)C#N (configuration not stated),99 to 102 °C
3,Ic1cccc(OCc2ccc3ccccc3c2)c1,111 to 112 °C
4,CC(Cl)(Cl)C(NC(=O)c1cccs1)NC(=NC#N)Nc1ccc(Cl)nc1 (configuration not stated),201 to 203 °C
5,OCCN1CCN(Cc2nnc3n2-c2ccc(Cl)cc2C(c2ccccc2)=NC3)CC1,113 to 118 °C
6,CC(=O)c1cccc(Oc2ncccc2C(=O)NCc2ccc([C@H](C)O)cc2)c1,102 to 104 °C
7,CCOC(COC1CC2C3CCC4=CC(=O)CCC4(C)C3(F)C(O)CC2(C)C1(O)C(=O)CO)OCC (configuration not stated),208 to 210 °C
8,CNC(=O)c1cccc(NC(=O)Cc2cccc(Br)c2)c1,176 to 178 °C
9,CCOC(=O)C(C#N)=NOS(C)(=O)=O,79 to 83 °C
10,Nn1cccc1C(=O)c1ccccc1F,44 to 47 °C
11,O=C1[C@H]2CCC[C@H]2N(C(=O)CNS(=O)(=O)c2ccccc2)c2ccccc2N1Cc1ccccc1 (relative stereo),185 to 187 °C
12,CN(C)OC(=O)C(C)(c1ccc(OCc2ccc3ccccc3n2)cc1)C1CCCCC1 (configuration not stated),98 to 99 °C
13,Cc1ccc(S(=O)(=O)n2ccnc2C(O)(c2ccccc2)c2ccc(Cl)cc2)cc1 (configuration not stated),116 to 118 °C
14,COC(=O)CCCC(=N)Nc1[nH]c2ccccc2c1C(=O)OC,95 °C
15,O=C1CCN(C(=O)Cl)c2cc(Cl)ccc21,150 to 153 °C
16,CN1CCN(C(=O)N2CCN(C(=O)OC(C)(C)C)CC2)CC1,130 °C
17,COc1cc(F)cc(-c2ccc3c(c2)C(C)(C)OC(=S)N3)c1,170 to 171 °C
18,O=C1N=CNC(=O)C1Cc1ccccc1C(F)(F)F (configuration not stated),> 290 °C
19,N#CC1=C(Nc2ccc(Br)cc2)CCC1,136 to 138 °C
20,CC(C)Cc1ccc(C(C)C(=O)ON(C(N)=O)C(C)c2ccoc2)cc1 (configuration not stated),55 to 59 °C
21,Cc1oc2c(OC(C)C(N)=NO)cccc2c1C (configuration not stated),147 to 148 °C
22,O=C1c2ccccc2CCC1CN1CCC2(CC1)C(=O)NCN2c1ccccc1 (configuration not stated),170 to 173 °C
23,CC1SC(=O)NN=C1c1ccc(N2CCC(N)CC2)c([N+](=O)[O-])c1 (configuration not stated),154 to 157 °C
24,C=CCC(C#N)(C#N)Cc1ccc(OCC)cc1,84.3 °C
25,CC(CCCC(=NO)C(=O)O)(c1ccc(OCc2ccc3ccccc3n2)cc1)c1ccc(OCc2ccc3ccccc3n2)cc1,78 to 80 °C
26,N#Cc1cn(CO)cc1-c1ccccc1Cl,94 to 97 °C

row,Compound,melting point
1,CCOC(=O)c1ccc(N2CCc3[nH]c4c(cnc5cc(Cl)ccc54)c3C2)cc1,241 to 243 °C
2,COc1cc(C)nc(NC(=O)NS(=O)(=O)c2ccccc2C(=O)Nc2nccs2)n1,185 to 187 °C
3,CC(/C=C/c1cscc1-c1ccc2c(c1)C(C)(C)CCC2(C)C)=C\C(=O)O,192 to 193 °C
4,O=C(Oc1ccccc1)OC1c2nccnc2C(=O)N1c1ccc(Cl)cn1 (configuration not stated),193 °C
5,CCC(=S)NC[C@H]1CN(c2ccc(N3CCN(C(=O)CCC(=O)c4ccc(CN(C)C)cc4)CC3)c(F)c2)C(=O)O1,169 °C
6,Cc1ccc(-c2sc(N)c(C(=O)c3ccc(Cl)cc3)c2CN(C2CCCCC2)C2CCCCC2)cc1,191 to 194 °C
7,CCN1C(=O)C(C)(C)C(=O)N(C)c2cc(CN(CCn3ccc4oc(C)cc4c3=O)Cc3ccccc3CO)ccc21,159 to 161 °C
8,C=CC(=O)OCC1(COC(=O)C=C)c2ccccc2-c2ccccc21,73 to 75 °C
9,COCn1ncc2cc(-c3nnc(SCc4ccc(OC)c(C(F)(F)F)c4)o3)ccc21,158 to 159 °C
10,COc1ccccc1C(=O)NCc1cccc2c1CN(C1CCC(=O)NC1=O)C2=O (configuration not stated),236 to 238 °C
11,Cc1nc(-c2ccc(C(F)(F)F)cc2)sc1CSc1ccc(CC(=O)O)cc1,202 to 203 °C
12,CCOC(=O)c1cnn(-c2ccc(OCC(C)CC)c(C#N)c2)c1 (configuration not stated),104 °C
13,CC(C)Oc1cc(CCC(=O)NS(=O)(=O)c2ccc(C(F)(F)F)cc2)n(Cc2ccc(Cl)cc2Cl)n1,167 to 169 °C
14,Cn1ccnc1-c1ccc(C(=O)CNC(=O)[C@H](Cc2ccccn2)NC(=O)OC(C)(C)C)cc1,120 to 124 °C
15,CCOC(=O)c1cn(-c2ccc(F)cc2C)c2c(C)c([N+](=O)[O-])c(F)cc2c1=O,207 to 209 °C
16,O=C(CCl)c1ccc2cc(O)c(O)cc2c1,> 320 °C
17,O=C(O)c1cccc2sc3ccccc3c(=O)c12,269 to 270 °C
18,O=C(NC1N=C(c2ccc(F)cc2)c2ccccc2NC1=O)OCc1ccccc1 (configuration not stated),> 260 °C
19,Clc1ccc2[nH]cc(C3=CCNCC3)c2c1,177 °C
20,CCCc1ncc(CN2CCN(c3ccccc3OC)CC2)c(N)n1,130 °C
21,C#CCN1C(=O)c2ccccc2C1OC (configuration not stated),85 to 87 °C
22,ClC=C(Cl)n1c2ccccc2c2ccccc21,51 to 53 °C
23,Cc1nn(C)c(N)c1C(=O)Nc1cccc(Cl)c1,87 to 92 °C
24,COc1ccc(COc2ccc(C(=O)NC[C@@H](C(=O)NO)N3CCN(S(C)(=O)=O)CC3)cc2)cc1,148 °C
25,CN1C(=O)CC[C@]2(C)c3ccc(Sc4nccc5sccc45)cc3CC[C@@H]12,196 to 197 °C
26,Cc1ccc(Nc2ncc(C=Cc3cccnc3)c3ccccc23)cc1Br,91 °C

row,Compound,melting point
1,CN1CCN(C(=O)c2cc(N)cc3c2OCCO3)CC1,170 °C
2,Cc1cc(C)nc(NC(=O)NS(=O)(=O)c2cc(Cl)sc2Cl)n1,192 to 194 °C
3,CCCCN(C=O)C1CC(C)(C)N(O)C(C)(C)C1,77 to 79 °C
4,COc1cc2ccccc2cc1NC(=O)N1CCN(c2cc(F)cc(F)c2)CC1,160 to 161 °C
5,COCCC(=O)N[C@H]1CC[C@H](CCN2CCN(c3nccc4c3OCC4)CC2)CC1,180 °C
6,NC1=Nc2cccc3c(=O)[nH]nc(c23)N1,> 300 °C
7,NS(=O)(=O)Oc1ccc(-c2ccccc2)cc1,166 to 168 °C
8,CCOC(=O)c1cn(-c2cccnc2)nc1N,140 to 141 °C
9,Cc1csc2nc(C(=O)NCc3cccc(CNC(=O)c4nc[nH]n4)c3)[nH]c(=O)c12,290 to 291 °C
10,CCCC(=O)Cc1ccc(C(=O)Nc2ccc3cc(CN4CCCCC4)cnc3c2C)cc1,164 to 165 °C
11,CC1(C)Cc2cc(O)c(Cl)c(Cl)c2C1=O,273 °C
12,COc1ccc(Cl)cc1-c1nccn1-c1ccccc1,97 to 102 °C
13,Nc1ccc(Oc2cccc3c(Oc4ccc(N)c(O)c4)cccc23)cc1O,251 to 253 °C
14,COc1cc(CO)c(N)c(OC)c1OC,56 to 58 °C
15,CC(C)(C)OC(=O)CNC(=O)c1nc2cc(Cl)ccc2o1,152 to 154 °C
16,Oc1cc2ccsc2c(Cl)c1Cl,97 to 98 °C
17,CCCCN(CCCC)c1nc(-c2ccc(OC)cc2)nc2sc(C#N)c(C)c12,96 to 98 °C
18,COC(=O)c1ccc2oc(-c3cccs3)nc2c1,141 to 142 °C
19,CCNC(=O)n1nc(Oc2ccc([N+](=O)[O-])c(C(F)(F)F)c2)cc1C,95 to 97 °C
20,COC(=O)C(C)(OCc1ccc2cc(OC)ccc2c1)C(F)(F)F (configuration not stated),60 to 62 °C
21,O=c1c2ccc(F)cc2ncn1Cc1ccccc1,110 to 111 °C
22,Cc1cc(SCC#Cc2ccccc2C(F)(F)F)ccc1OCC(=O)O,95 to 97 °C
23,COc1ccc(-c2cc3ccccc3s2)cc1,188 to 190 °C
24,O=CNc1ccc(-c2ccncc2)cc1,188 to 190 °C
25,CC(=O)N(c1ccc(O)cc1)N1CCOCC1,183 to 184 °C
26,COc1ccc2[nH]ncc2c1Br,178 to 180 °C

row,Compound,melting point
1,C/C(=C(\C#N)C(=S)/N=C/N(C)C)N1CCCN(c2ccc(C(F)(F)F)cc2)CC1,251 to 253 °C
2,CC(C)C[C@@H](OS(=O)(=O)c1ccc([N+](=O)[O-])cc1)C(=O)O,60 to 62 °C
3,CCCCCCCCCOc1ccc(Cl)c(C(N)=O)c1F,75 to 77 °C
4,CCOc1nn(-c2ccc(C(F)(F)F)cn2)cc1CCOc1ccc(CCC(=O)O)c(C)c1,117 to 119 °C
5,C#CCOc1cc(-c2ncc(C(F)(F)F)cc2Cl)ccc1Cl,102 to 103 °C
6,N#Cc1cccc(-c2cc(-c3ccc(C#N)cc3Cl)no2)c1,221 to 223 °C
7,COc1cc(C)cc(OC)c1C(=O)c1ccccc1N(C)C(=O)CBr,121 °C
8,CCCN(CCC)CC1CCn2c(nc3ccccc32)S1 (configuration not stated),82 to 84 °C
9,COc1cc(OC)nc(NC(=O)NS(=O)(=O)c2ccccc2C=C2CCOC2=O)n1,185 to 190 °C
10,CC(=O)S[C@H]1CNC(=S)C1,91 to 93 °C
11,CCOC(=O)c1sc(NC(=O)c2cc(-c3cccs3)ccc2O)nc1-c1ccccc1,213 to 214 °C
12,Cn1c(C(F)(F)F)cc(=O)n(-c2cc(OCC#CCOc3ccccc3)c(Cl)cc2F)c1=O,142 to 144 °C
13,COc1ccc(CNC(=O)c2c(C)c([N+](=O)[O-])cc3nc(OC)c(OC)nc23)cc1,187 to 189 °C
14,O=C(CBr)CCc1ccc(I)cc1,76 to 77 °C
15,O=C(O)[C@H](Cc1c[nH]c2ccccc12)NC(=O)[C@@H]1C[C@H](S)CN1S(=O)(=O)c1ccc2ccccc2c1,130 °C
16,CC(=O)Nc1ccc(Br)c2c1CCN(C(C)=O)C2,179 to 181 °C
17,Cc1cc2c(cc1C(F)(F)F)NC(=O)CC(c1cccc(-n3nncc3CNC3CC3)c1)=N2,181 °C
18,Cc1cccc(-c2nc(N)ncc2-c2ccc(=O)n(C(C)C)n2)c1,198 °C
19,CC1(C)CC(=O)C1(Br)CC(Cl)(Cl)Cl (configuration not stated),46 to 49 °C
20,CCCc1c(OCc2ccccc2)ccc2c1OC(CCC(=O)O)(CCC(=O)O)CC2=O,202 to 205 °C
21,COCc1cc(Cl)cc2c1OC(C(F)(F)F)C(C(=O)O)=C2 (configuration not stated),167 to 168 °C
22,COc1ccc(-c2sc3c(c2C)c(=O)c(C(C)=O)cn3Cc2ccccc2F)cc1,215 to 216 °C
23,N#CC(=CNC1CC1)C(=O)c1cc(F)c(F)c(F)c1F,88 to 89 °C
24,CCN(CC)Cc1cc(NC(C)=O)c2c(c1O)CCCC2,157 to 159 °C

# Reference: a melting point compilation (Tetko et al.; mined from patent text by program, amines drawn as free bases though some values may be those of a salt)
